“Also recorded” adds a separate entry of the source.
Tests used:
[1] = system: FRDAkd mice; assay: Survival of FRDAkd mice after FXN knockdown (DOX); type: in vivo, mouse; conditions: combination versus individual treatment
Experimental: FIG. 4. […] No mortality was observed FRDAkd mice (DOX) treated with quercetin, taurine, and EGCG. FRDAkd mice were treated with doxycycline (DOX for FXN knockdown) or with doxycycline plus 100 mg/kg/day taurine, 35 mg/kg/day quercetin, and 4.6 mg/kg/day EGCG, and 0.5 mg/kg/day of ferrous sulfate for 16 weeks. N=10 animals per group.

[2] = system: NRF2; conditions: FRDA patients with moderate dysfunction (Lynch D R et al. 2021); cited from earlier work
[3] = system: FXN; assay: FXN expression in FRDA patient fibroblasts (Western blot, qPCR); type: cell-based, human
Experimental: FIG. 2A. […] Expression levels were determined using Real-time PCR and normalized to Hprtl. Experiments were conducted in triplicates and values expressed as mean±SEM. One-way ANOVA and 0.05**
(§1) FIG. 2B. […] N=3. One-way ANOVA and Welch's t-test, ±SEM. *p≤0.05, **p≤0.01, ***p 0.001.
(§2) FIG. 3A-B. Western blot analysis of FXN and NRF2 in FRDA cells and FRDAkd mice after quercetin treatment.
(§3) FIG. 3C-D. Western blot analysis of FXN and NRF2 in FRDA cells and FRDAkd mice after quercetin treatment. […] Tg Low Dox animals were treated with 625 mg/kg doxycycline (FXN knockdown) and Tg Low Dox+Quercetin animal was provided with 625 mg/kg doxycycline plus 35 mg/kg/day of quercetin. […] Overall, quercetin increased the expression of FXN and NRF2 in both in vitro and in vivo conditions.

[4] = system: NRF2; assay: NRF2 expression in FRDA patient fibroblasts (Western blot, qPCR); type: cell-based, human
From the text: as §1, §2

[5] = system: FXN; assay: FXN expression in tissues of FRDAkd mice (Western blot); type: in vivo, mouse; conditions: for expression of FXN (Western blot): 35 mg/kg/day quercetin, 625 mg/kg doxycycline
Experimental: as §2, §3

[6] = system: NRF2; assay: NRF2 expression in tissues of FRDAkd mice (Western blot); type: in vivo, mouse; conditions: for expression of NRF2 (Western blot): 35 mg/kg/day quercetin, 625 mg/kg doxycycline
Experimental: as §2, §3

[7] = system: iron metabolism-related genes; assay: Expression of iron metabolism-related genes in cell lines (Real-time PCR); type: cell-based, human; conditions: various cell lines, including FRDA patient fibroblast cell lines
Experimental: FIG. 2A. Graphs illustrating expression levels of frataxin (FXN) and various iron metabolism-related genes in control fibroblasts (age and sex matched) or fibroblasts from a patient with Friedreich's Ataxia (FRDA) treated with vehicle or 75 μM quercetin. Expression levels were determined using Real-time PCR and normalized to Hprtl. Experiments were conducted in triplicates and values expressed as mean±SEM. One-way ANOVA and 0.05**

[8] = previous studies (Lesjak M et al. 2019); cited from earlier work
[9] = system: FXN; conditions: phase 3 randomized controlled trial, FRDA; cited from earlier work
[10] = FRDA fibroblast cell line, 24 hours quercetin, 75 μM and 100 μM
[11] = FRDA patient fibroblast cell lines (in vitro), summary statement
[12] = fibroblasts from patients with FRDA, quercetin dose series
[13] = several tissues from quercetin-treated FRDAkd mice (in vivo), summary statement

Molecule: O=C(O[C@@H]1Cc2c(O)cc(O)cc2O[C@@H]1c1cc(O)c(O)c(O)c1)c1cc(O)c(O)c(O)c1 [EGCG, (2R,3R)-3′,4′,5,5′,7-Pentahydroxyflavan-3-yl 3,4,5-trihydroxybenzoate]
- survival in mouse FRDA models [1]: did not improve survival rates

Molecule: CC1(C)CC[C@]2(NC(=O)C(C)(F)F)CC[C@]3(C)[C@H](C(=O)C=C4[C@@]5(C)C=C(C#N)C(=O)C(C)(C)[C@@H]5CC[C@]43C)[C@@H]2C1 [omaveloxolone]
- neurological function [2]: improved

Molecule: O=c1c(O)c(-c2ccc(O)c(O)c2)oc2cc(O)cc(O)c12 [quercetin, 3,3′,4′,5,7-Pentahydroxyflavone]
- expression of FXN (Western blot, independent replication) ([3]; FRDA fibroblast cell line, 24 hours quercetin, 7 μM dose): increased expression
- expression of FXN (Western blot) [3, 10]: Increased expression
- FXN expression [3, 11]: increase; also recorded: enhanced
- FXN marker gene expression (qPCR) [3, 12]: dose-dependent effects
- expression of NRF2 (Western blot) [4, 10]: Increased expression
- NRF2 expression [4, 11]: increase; also recorded: enhanced
- NRF2 marker gene expression (qPCR) [4, 12]: dose-dependent effects
- expression of FXN (Western blot) ([5]; FRDAkd mice heart, eight weeks): Increased expression
- expression of FXN (Western blot) ([5]; FRDAkd mice liver, three weeks): Increased expression
- FXN expression [5, 13]: increase; also recorded: enhanced
- expression of NRF2 (Western blot) ([6]; FRDAkd mice heart, eight weeks): Increased expression
- expression of NRF2 (Western blot) ([6]; FRDAkd mice liver, three weeks): Increased expression
- NRF2 expression [6, 13]: increase; also recorded: enhanced
- expression of several genes involved in iron metabolism [7]: increase expression
- survival in mouse FRDA models [1]: did not improve survival rates
- serum and tissue iron [8]: depletion

Molecule: NCCS(=O)(=O)O [taurine, 2-Aminoethane-1-sulfonic acid]
- survival in mouse FRDA models [1]: did not improve survival rates

B1: interferon γ-1b: treatment option for FRDA to increase FXN levels, dropped at phase 3 (protein, UniProt P01579 24-161, looked up)
Interferon gamma: QDPYVKEAENLKKYFNAGHSDVADNGTLFLGILKNWKEESDRKIMQSQIVSFYFKLFKNFKDDQSIQKSVETIKEDMNVKFFNSNKKKRDDFEKLTNYSVTDLNVQRKAIHELIQVMAELSPAAKTGKRKRSQMLFRG
- outcome measures [9]: failure to show any improvement
